Assays:
ICR mice [1] = assay: Effect of dihydroberberine on blood phenylpyruvate and tyrosine in ICR mice; assay type: in vivo
Protocol: The concentrations of phenylpyruvate and tyrosine in blood are the key indicators to evaluate the therapeutic effect for phenylketonuria.
(§1) ICR mice (male, 20±2 g) were purchased from Beijing Vital River Laboratory Animal Technology Co., Ltd. All the animals were fed in SPF environment (21±2° C., 12-hour photoperiod) and had free access to food and water during the experiment. Berberine was purchased from the J&K Technology Co. LTD (Beijing, China). Dihydroberberine was purchased from the Mansite Biology & Technology Co. LTD (Chengdu, China). Phenylpyruvate, phenylalanine, and tyrosine were purchased from Solarbio Science&Technology Co. LTD (Beijing, China).
Experimental design: The animals were divided into three groups, including the control group, the 200 mg/kg dihydroberberine oral treated group at 12 h, the 200 mg/kg dihydroberberine oral treated group at 24 h.
(§2) (1) The control group: saline 0.2 mL (oral);
(2) The 100 mg/kg dihydroberberine singe oral treated group at 12 h: 100 mg/kg […] (oral);
(3) The 100 mg/kg dihydroberberine singe oral treated group at 24 h: 100 mg/kg […] (oral).

[2] = test system: α-methylphenylalanine induced phenylketonuria model of suckling rats; assay: Therapeutic effect in α-methylphenylalanine induced phenylketonuria model of suckling rats; assay type: in vivo, SD suckling rats
Protocol: The phenylpyruvate concentration and ratio of phenylalanine/tyrosine in blood are the key indicators for evaluating the therapeutic effect in phenylketonuria model of suckling rats.
SD suckling rats (1 day old) were purchased from Beijing Vital River Laboratory Animal Technology Co., Ltd. All the animals and female rats were fed in SPF environment (21±2° C., 12-hour photoperiod) and had free access to food and water during the experiment. Berberine was purchased from the J&K Technology Co. LTD (Beijing, China). Phenylpyruvate, phenylalanine, and tyrosine were purchased from Solarbio Science&Technology Co. LTD (Beijing, China). α-Methylphenylalanine was purchased from Sinuokai Technology Co. LTD (Nanjing, China).
High-performance liquid chromatography-triple quadrupole tandem mass spectrometry (LC-MS/MS 8050, Shimadzu Corporation, Japan) was used to quantitatively determine the concentration of dopa, phenylalanine, tyrosine, and phenylpyruvate. Alltima C18 (5 μm, 4.6×150 mm) chromatography column was used in the experiment, and the column temperature was maintained at 40° C. The mobile phase to measure L-dopa was water-formic acid (100: 0.2 v/v) and acetonitrile. The condition of gradient elution was as follows (A: B, 0 min, 90:10; 2.5 min, 80:20; 2.51 min, 5:95; 5 min, 5:95; 5.01 min, 90:10; 8 min 90:10). The flow rate was 0.8 mL/min. Multi-reaction monitoring mode was used for quantization, and the quantitative ion pair of dopa was 198.15→[…] (m/z). Phenylalanine, tyrosine, and phenylpyruvate level were determined using Alltima C18 (5 μm, 4.6×150 mm) chromatography column at column temperature of 40° C. The mobile phase contained water-formic acid (100:0.1 v/v) and methanol. The condition of gradient elution was as follows (A: B, 0 min, 90:10; 1 min, 90:10; 1.01 min, 60:40; 5 min, 5:95; 7 min, 5:95; 7.01 min 90:10; 10 min 90:10). The flow rate was 0.8 mL/min. Multi-reaction monitoring mode was used for quantization. The quantitative ion pair was: phenylalanine, 165.85→120.20; tyrosine, 182.00→136.10; phenylpyruvate, 163.00→91.00.
Experimental design: The animals were divided into 6 groups, including: the normal control group, the model group, the low-dose of oral berberine treated model group, the high-dose of oral berberine treated model group, the intraperitoneal berberine treated model group, and the oral berberine treated pseudo-germ-free model group. The establishment of model started at 2 days old of SD suckling rats, which were administrated for 10 days, and then they were treated for 7 days.
(1) Normal control group: normal saline (s.c.).
(2) Model group: a-methylphenylalanine (s.c. 50 mg/kg/d), and phenylalanine (s.c. 200 mg/kg/d);
(3) Low-dose of oral berberine treated model group: α-methylphenylalanine (s.c. 50 mg/kg/d), phenylalanine (s.c. 200 mg/kg/d), berberine (oral, 100 mg/kg/d);
(4) High-dose of oral berberine treated model group: α-methylphenylalanine (s.c. 50 mg/kg/d), phenylalanine (s.c. 200 mg/kg/d), berberine (oral, 200 mg/kg/d);
(5) Intraperitoneal berberine treated model group: α-methylphenylalanine (s.c. 50 mg/kg/d), phenylalanine (s.c. 200 mg/kg/d), berberine (i.p. 20 mg/kg/d);
(6) Oral berberine treated pseudo-germ-free model group: α-methylphenylalanine (s.c. 50 mg/kg/d), phenylalanine (s.c. 200 mg/kg/d), berberine (oral, 200 mg/kg/d); Antibiotic dose: cefadroxil (100 mg/kg/d), oxytetracycline (300 mg/kg/d), erythromycin (300 mg/kg/d).

ICR mice [3] = assay: Effect of jatrorrhizine on blood phenylpyruvate and tyrosine in ICR mice; assay type: in vivo
Protocol: The concentrations of phenylpyruvate and tyrosine in blood are the key indicators to evaluate the therapeutic effect for phenylketonuria in children.
as §1, with “China).” for “China). Dihydroberberine was purchased from the Mansite Biology & Technology Co. LTD (Chengdu, China).”
Experimental design: The animals were divided into three groups, including the control group, the 200 mg/kg jatrorrhizine oral treated group at 12 h, the 200 mg/kg jatrorrhizine oral treated group at 24 h.
as §2
(2) The 200 mg/kg jatrorrhizine singe oral treated group at 12 h: 200 mg/kg jatrorrhizine (oral);
(3) The 200 mg/kg jatrorrhizine single oral treated group at 24 h: 200 mg/kg jatrorrhizine (oral).

COc1ccc2c(c1OC)CN1CCc3cc4c(cc3C1=C2)OCO4 [dihydroberberine]
Ratio of phenylalanine/tyrosine in blood (ICR mice [1]; oral administration): reduce
Tyrosine level in blood (ICR mice [1]; single oral 100 mg/kg (200 mg/kg), 12 h and 24 h, vs control (FIG. 7)): significantly increased
Phenylpyruvate level in blood (ICR mice [1]; single oral 100 mg/kg (200 mg/kg), 12 h and 24 h, vs control (FIG. 8)): significantly decreased

COc1ccc2cc3[n+](cc2c1OC)CCc1cc2c(cc1-3)OCO2 [berberine]
Phenylalanine/tyrosine ratio in blood ([2]; intraperitoneal injection 20 mg/kg/d (FIG. 2)): not significantly changed
Concentration of dopa in brain ([2]; intraperitoneal injection 20 mg/kg/d (FIG. 3)): not significantly changed
Concentration of dopamine in brain ([2]; intraperitoneal injection 20 mg/kg/d (FIG. 4)): not significantly changed
Phenylpyruvate level in blood ([2]; intraperitoneal injection 20 mg/kg/d, 7 days (FIG. 1)): not significantly changed
Phenylpyruvate level in blood ([2]; oral 100 and 200 mg/kg/d for 7 days, vs model group, dose-dependent (FIG. 1)): significantly decreased
Phenylalanine/tyrosine ratio in blood ([2]; oral 100 and 200 mg/kg/d, vs model group, dose-dependent (FIG. 2)): significantly decreased
Concentration of dopa in brain ([2]; oral 100 and 200 mg/kg/d, vs model group, dose-dependent (FIG. 3)): significantly increased
Concentration of dopamine in brain ([2]; oral 100 and 200 mg/kg/d, vs model group, dose-dependent (FIG. 4)): significantly increased
Level of tyrosine in blood ([2]; oral administration): increase
Phenylpyruvate level in blood ([2]; pseudo-germ-free (antibiotic treated) model, oral 200 mg/kg/d (FIG. 1)): not significantly changed
Phenylalanine/tyrosine ratio in blood ([2]; pseudo-germ-free model, oral 200 mg/kg/d (FIG. 2)): not significantly changed
Concentration of dopa in brain ([2]; pseudo-germ-free model, oral 200 mg/kg/d (FIG. 3)): not significantly changed
Concentration of dopamine in brain ([2]; pseudo-germ-free model, oral 200 mg/kg/d (FIG. 4)): not significantly changed

COc1cc2c(cc1O)CC[n+]1cc3c(OC)c(OC)ccc3cc1-2 [jatrorrhizine]
Ratio of phenylalanine/tyrosine in blood (ICR mice [3]; oral administration): reduce
Tyrosine level in blood (ICR mice [3]; single oral 200 mg/kg, 12 h and 24 h, vs control (FIG. 5)): significantly increased
Phenylpyruvate level in blood (ICR mice [3]; single oral 200 mg/kg, 12 h and 24 h, vs control (FIG. 6)): significantly decreased

From patent publication US20200230118A1, “USE OF BERBERINE OR ACTIVE METABOLITE THEREOF IN PREPARATION OF DRUG FOR PREVENTING AND/OR TREATING PHENYLKETONURIA” (Institute of Materia Medica, Chinese Academy of Medical …, priority 2017, published 2020)
